Among the data in PubChem BioAssay AID256 (DTP/NCI, 2004) are T/C values, retold here.

This experiment has as its system CD2F1 mice, L1210 leukemia ip, survival T/C. Put plainly: NCI In Vivo Anticancer Drug Screen. Data for tumor model L1210 Leukemia (intraperitoneal) in CD2F1 (CDF1) mice. The following applies: higher = longer survival. The method in brief: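 Tumor-bearing mice (transplanted tumor) were split into treated and vehicle control groups, and the measured endpoint of each treated group was divided by that of its vehicle controls.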

“And” between values parts separate entries of the source, which are not always exact repeats. Equal values may be shown once. Inconclusive results and toxic doses are left out.

With `Nc1nc([Se])c2ncn(C3OC(CO)C(O)C3O)c2n1` (configuration not stated), the T/C was 123 % of control (endpoint: mean survival time, dose: 1.0 mg/kg/injection, schedule: Q01DX009 (ip), vehicle: saline); 114 % of control (endpoint: mean survival time, dose: 2.0 mg/kg/injection, schedule: Q01DX009 (ip), vehicle: distilled water + Tween-80); 119 % of control (endpoint: mean survival time, dose: 2.0 mg/kg/injection, schedule: Q01DX009 (ip), vehicle: water); 117 % of control (endpoint: mean survival time, dose: 2.0 mg/kg/injection, schedule: Q04DX003 (ip), vehicle: DMSO); 116 % of control and 109 % of control (endpoint: mean survival time, dose: 2.0 mg/kg/injection, schedule: Q04DX003 (ip), vehicle: clinical formulation); 115 % of control and 119 % of control (endpoint: mean survival time, dose: 2.0 mg/kg/injection, schedule: Q04DX003 (ip), vehicle: saline). In addition, the T/C is 95 % of control (endpoint: mean survival time, dose: 2.5 mg/kg/injection, schedule: Q01DX005 (iv), vehicle: water); 113 % of control (endpoint: mean survival time, dose: 4.0 mg/kg/injection, schedule: Q04DX003 (ip), vehicle: DMSO); 113 % of control (endpoint: mean survival time, dose: 4.0 mg/kg/injection, schedule: Q04DX003 (ip), vehicle: clinical formulation); 113 % of control (endpoint: mean survival time, dose: 5.0 mg/kg/injection, schedule: Q01DX005 (iv), vehicle: water); 115 % of control (endpoint: mean survival time, dose: 8.0 mg/kg/injection, schedule: Q04DX003 (ip), vehicle: clinical formulation); 169 % of control (endpoint: mean survival time, dose: 12.5 mg/kg/injection, schedule: Q01DX005 (ip), vehicle: saline). Moreover, the T/C (endpoint: mean survival time, dose: 16.0 mg/kg/injection, schedule: Q01DX009 (ip), vehicle: distilled water + Tween-80) is 150 % of control; the T/C (endpoint: mean survival time, dose: 16.0 mg/kg/injection, schedule: Q01DX009 (ip), vehicle: water) was 119 % of control; the T/C (endpoint: mean survival time, dose: 25.0 mg/kg/injection, schedule: Q01DX005 (ip), vehicle: saline) was 191 % of control; the T/C (endpoint: mean survival time, dose: 32.0 mg/kg/injection, schedule: Q01DX009 (ip), vehicle: distilled water + Tween-80) was 156 % of control; the T/C (endpoint: mean survival time, dose: 32.0 mg/kg/injection, schedule: Q01DX009 (ip), vehicle: saline) is 116 % of control and 117 % of control; the T/C (endpoint: mean survival time, dose: 32.0 mg/kg/injection, schedule: Q01DX009 (ip), vehicle: water) was 92 % of control. For the same compound, the T/C is 151 % of control (endpoint: mean survival time, dose: 40.0 mg/kg/injection, schedule: Q01DX005 (iv), vehicle: water); 187 % of control (endpoint: mean survival time, dose: 50.0 mg/kg/injection, schedule: Q01DX005 (ip), vehicle: saline); 87 % of control (endpoint: mean survival time, dose: 64.0 mg/kg/injection, schedule: Q01DX009 (ip), vehicle: saline); 100 % of control (endpoint: median survival time, dose: 1.0 mg/kg/injection, schedule: Q01DX009 (sc), vehicle: DMSO); 153 % of control (endpoint: median survival time, dose: 1.0 mg/kg/injection, schedule: Q03HX016 (ip), vehicle: DMSO); 150 % of control (endpoint: median survival time, dose: 1.0 mg/kg/injection, schedule: Q03HX024 (ip), vehicle: DMSO). For the same compound, the T/C is 172 % of control (endpoint: median survival time, dose: 2.0 mg/kg/injection, schedule: Q01DX009 (ip), vehicle: DMSO); 111 % of control (endpoint: median survival time, dose: 2.0 mg/kg/injection, schedule: Q01DX009 (sc), vehicle: DMSO); 171 % of control (endpoint: median survival time, dose: 2.0 mg/kg/injection, schedule: Q03HX008 (ip), vehicle: DMSO); 162 % of control (endpoint: median survival time, dose: 2.0 mg/kg/injection, schedule: Q03HX016 (ip), vehicle: DMSO); 178 % of control (endpoint: median survival time, dose: 2.0 mg/kg/injection, schedule: Q03HX024 (ip), vehicle: DMSO); 200 % of control (endpoint: median survival time, dose: 4.0 mg/kg/injection, schedule: Q01DX009 (ip), vehicle: DMSO). Also, the T/C (endpoint: median survival time, dose: 4.0 mg/kg/injection, schedule: Q01DX009 (oral), vehicle: DMSO) was 107 % of control; the T/C (endpoint: median survival time, dose: 4.0 mg/kg/injection, schedule: Q03HX008 (ip), vehicle: DMSO) was 173 % of control; the T/C (endpoint: median survival time, dose: 4.0 mg/kg/injection, schedule: Q03HX016 (ip), vehicle: DMSO) was 185 % of control; the T/C (endpoint: median survival time, dose: 4.0 mg/kg/injection, schedule: Q03HX024 (ip), vehicle: DMSO) is 175 % of control; the T/C (endpoint: median survival time, dose: 4.0 mg/kg/injection, schedule: Q08DX002 (ip), vehicle: DMSO) is 123 % of control; the T/C (endpoint: median survival time, dose: 8.0 mg/kg/injection, schedule: Q01DX001 (sc), vehicle: DMSO) is 112 % of control. The T/C is 175 % of control (endpoint: median survival time, dose: 8.0 mg/kg/injection, schedule: Q01DX009 (ip), vehicle: DMSO); 123 % of control (endpoint: median survival time, dose: 8.0 mg/kg/injection, schedule: Q01DX009 (oral), vehicle: DMSO); 166 % of control (endpoint: median survival time, dose: 8.0 mg/kg/injection, schedule: Q01DX009 (sc), vehicle: DMSO); 176 % of control (endpoint: median survival time, dose: 8.0 mg/kg/injection, schedule: Q03HX008 (ip), vehicle: DMSO); 176 % of control (endpoint: median survival time, dose: 8.0 mg/kg/injection, schedule: Q03HX016 (ip), vehicle: DMSO); 185 % of control (endpoint: median survival time, dose: 8.0 mg/kg/injection, schedule: Q03HX024 (ip), vehicle: DMSO). Besides, the T/C was 166 % of control (endpoint: median survival time, dose: 8.0 mg/kg/injection, schedule: Q04DX003 (ip), vehicle: DMSO); 120 % of control (endpoint: median survival time, dose: 16.0 mg/kg/injection, schedule: Q01DX001 (oral), vehicle: DMSO); 121 % of control (endpoint: median survival time, dose: 16.0 mg/kg/injection, schedule: Q01DX001 (sc), vehicle: DMSO); 191 % of control (endpoint: median survival time, dose: 16.0 mg/kg/injection, schedule: Q01DX009 (ip), vehicle: DMSO); 158 % of control (endpoint: median survival time, dose: 16.0 mg/kg/injection, schedule: Q01DX009 (oral), vehicle: DMSO); 187 % of control (endpoint: median survival time, dose: 16.0 mg/kg/injection, schedule: Q01DX009 (sc), vehicle: DMSO). Moreover, the T/C (endpoint: median survival time, dose: 16.0 mg/kg/injection, schedule: Q04DX003 (ip), vehicle: DMSO) is 178 % of control; the T/C (endpoint: median survival time, dose: 16.0 mg/kg/injection, schedule: Q08DX002 (ip), vehicle: DMSO) was 102 % of control; the T/C (endpoint: median survival time, dose: 32.0 mg/kg/injection, schedule: Q01DX001 (oral), vehicle: DMSO) was 117 % of control; the T/C (endpoint: median survival time, dose: 32.0 mg/kg/injection, schedule: Q01DX009 (ip), vehicle: DMSO) was 178 % of control; the T/C (endpoint: median survival time, dose: 32.0 mg/kg/injection, schedule: Q01DX009 (oral), vehicle: DMSO) is 167 % of control; the T/C (endpoint: median survival time, dose: 32.0 mg/kg/injection, schedule: Q01DX009 (sc), vehicle: DMSO) was 160 % of control. For the same compound, the T/C is, setting by setting: (endpoint: median survival time, dose: 32.0 mg/kg/injection, schedule: Q04DX003 (ip), vehicle: DMSO) 183 % of control; (endpoint: median survival time, dose: 64.0 mg/kg/injection, schedule: Q01DX009 (ip), vehicle: DMSO) 116 % of control; (endpoint: median survival time, dose: 64.0 mg/kg/injection, schedule: Q01DX009 (oral), vehicle: DMSO) 160 % of control; (endpoint: median survival time, dose: 64.0 mg/kg/injection, schedule: Q01DX009 (sc), vehicle: DMSO) 111 % of control; (endpoint: median survival time, dose: 64.0 mg/kg/injection, schedule: Q04DX003 (ip), vehicle: DMSO) 191 % of control; (endpoint: median survival time, dose: 128.0 mg/kg/injection, schedule: Q01DX001 (ip), vehicle: DMSO) 121 % of control.
`IC1CCC[N-]C1.IC1CCC[N-]C1.[Cl][Pt+2][Cl]` (configuration not stated): the T/C is 95 % of control (endpoint: mean survival time, dose: 50.0 mg/kg/injection, schedule: Q01DX001 (ip), vehicle: saline with Tween-80); 93 % of control (endpoint: mean survival time, dose: 100.0 mg/kg/injection, schedule: Q01DX001 (ip), vehicle: saline with Tween-80); 95 % of control (endpoint: mean survival time, dose: 200.0 mg/kg/injection, schedule: Q01DX001 (ip), vehicle: saline with Tween-80).
As for `CCOC(=O)/C(C#N)=N/O`, for the setting “endpoint: mean survival time, dose: 75.0 mg/kg/injection, schedule: Q01DX001 (ip), vehicle: saline”, the T/C was 100 % of control.
In the case of `C=Cc1cnc(N)nc1-c1ccc(OC)cc1`, the T/C (endpoint: mean survival time, dose: 100.0 mg/kg/injection, schedule: Q04DX002 (ip), vehicle: saline with Tween-80) is 101 % of control; the T/C (endpoint: mean survival time, dose: 200.0 mg/kg/injection, schedule: Q04DX002 (ip), vehicle: saline with Tween-80) is 96 % of control; the T/C (endpoint: mean survival time, dose: 400.0 mg/kg/injection, schedule: Q04DX002 (ip), vehicle: saline with Tween-80) was 96 % of control.
